Experimental data reported in patent US20020081733A1, “METHOD TO PREPARE DRUG-RESISTANT, NON-MALIGNANT HEMATOPOIETIC CELLS” (priority 1998, published 2002).

Legend:
[1] = test system: CML 34^+DR^+ CFC and LTC-IC; experiment: MTX sensitivity of NL and CML CFC and LTC-IC (serum-free methylcellulose assay / LTC); format: cell-based, human; conditions: increasing MTX concentrations, FIG. 2A, 2B
Description: (§1) FIG. 2. Drug sensitivity of untransduced cells. A) NL and CML 34^+DR^+ cells were plated in a serum-free methylcellulose assay with increasing MTX concentrations to determine the MTX sensitivity of CFC. B) NL 34^+DR^− cells (LTC-IC) and CML 34^+DR^+ (Ph^+ LTC-IC) cells were incubated for 1 week in serum-free medium and cytokines with increasing MTX concentrations and then replated in LTC for 5 weeks. The number of MTX resistant LTC-IC was determined by replating LTC derived progeny in methylcellulose without […]. C) NL and CML 34^+DR^+ cells were plated directly in methylcellulose with increasing concentrations of taxol. D) NL 34^+DR^− cells (LTC-IC) and CML 34^+DR^+ (Ph^+LTC-IC) were plated in liquid culture for 7 days with increasing concentrations of taxol and then replated in LTC.
To determine the MTX sensitivity of normal (NL) and CML CFC cells, NL and CML 34^+DR^+ cells were plated in a serum-free methylcellulose assay with increasing MTX concentrations (FIG. 2A). To determine the MTX sensitivity of NL and CML LTC-IC cells, NL 34^+DR^− cells (LTC-IC) and CML 34^+DR^+ (Ph^+ LTC-IC) cells were also incubated for I week in serum-free medium and cytokines, with increasing MTX concentrations. The cells were then replated in LTC for 5 weeks. The number of MTX resistant LTC-IC was determined by replating LTC derived progeny in methylcellulose assay without MTX (FIG. 2B).

CML and NL progenitors = experiment: Taxol sensitivity of NL and CML cells (methylcellulose / liquid culture then LTC); format: cell-based, human; conditions: increasing concentrations of taxol; FIG. 2C, 2D
Description: as §1
To determine the taxol sensitivity of NL and CML cells, NL and CML 34^+DR^+ and 34^+DR^− cells were plated either in liquid culture for 7 days with increasing concentrations of taxol and then replated in LTC (FIG. 2D). NL and CML cells were also plated directly in methylcellulose with increasing concentrations of taxol (FIG. 2C).

CN(Cc1cnc2nc(N)nc(N)c2n1)c1ccc(C(=O)N[C@@H](CCC(=O)O)C(=O)O)cc1 [MTX, methotrexate]
MTX sensitivity of CML 34+DR+ CFC and LTC-IC relative to NL 34+DR+ CFC and NL 34+DR− LTC-IC [1]: at least equally sensitive

CC(=O)O[C@H]1C(=O)[C@@]2(C)[C@H]([C@H](OC(=O)c3ccccc3)[C@]3(O)C[C@H](OC(=O)[C@H](O)[C@@H](NC(=O)c4ccccc4)c4ccccc4)C(C)=C1C3(C)C)[C@]1(OC(C)=O)CO[C@@H]1C[C@@H]2O [taxol]
taxol sensitivity of CML versus NL progenitors (CML and NL progenitors): equal sensitivity
